Results taken from article PMC3475717, “A Spiroligomer α-Helix Mimic That Binds HDM2, Penetrates Human Cells and Stabilizes HDM2 in Cell Culture” (PLoS ONE, 2012).
“And” between values parts separate entries of the source, which are not always exact repeats. Identical values can stand only once.

Biological target: T1, HDM2_25–117 (Homo sapiens, UniProt Q00987)
T1 construct: unnamed fusion partner ('fusion protein'); made in house; host or cells: E. coli BL21
Test: direct binding fluorescence polarization assay
Conditions: for fluorescence polarization: oligomer 10 nM, three independent replicates
Method: To measure the binding affinity of the functionalized spiroligomers to HDM2 we utilized a direct binding fluorescence polarization assay. The binding of the fluorescein labeled spiroligomers was measured at 10 nM spiroligomer in the presence of varying concentrations of HDM2_25–117 [31]. […] The initial screen of spiroligomers including 3–7 was carried out on the spiroligomer backbone containing all (S) stereochemistry to identify appropriate functional groups to mimic the side chains of Phe19, Trp23 and Leu26 of the p53 helix.
HDM2 Protein Expression. A fusion protein consisting of residues 1-140 (the plasmid was a generous gift from the lab of Neil Zondlo, University of Delaware) was prepared by over-expression.4 Plasmids were used to transform chemically competent E-coli BL21 Cells (Novagen), and a single colony was used to inoculate 2×4 mL LB media culture tubes containing 0.1 mg/mL ampicillin, at 37 °C overnight. These overnight cultures were used to inoculate a 1 L culture of TB media containing 0.1 mg/ml ampicillin. The culture was incubated at 37 °C with shaking at 250 rpm until the optical density at 600 nm reached to 0.9 absorbance units. Protein overexpression was then induced by the addition of 20% isopropyl β-D-thiogalactoside (IPTG) to 0.4 mM final concentration. The culture was then grown for additional 5 hours at 30 °C. Then cells were harvested at 4 °C by centrifugation at 4500 rpm for 20 min.
The cell pellet was resuspended in chilled 1x Binding Buffer (0.5 M NaCl, 20 mMTris-Hcl, 5 mM imidazole, pH 7.9), frozen and stored at -80 °C until protein purification.
Protein Purification. The frozen cell pellet was thawed at 4 °C and lysed by sonication for 2 minutes with 10 sec on and 20 sec off. Cell debris was pelleted by centrifugation for 30 min at 15000 g, 4 °C and the supernatant was filtered through a 0.2 μm syringe filter. A column was prepared using 2 mL Novagen His-Bind suspended resin and resin was washed with 3 volumes DI water. The flow rate maintained was not more than 0.5 ml/min throughout the purification.
The resin was charged with 5 vol 1x Charge Buffer (50 mM NiSO4) and then equilibrated with 3 vol 1x Binding Buffer (5 mM imidazole). After loading the column with prepared extract, the resin was washed with 10 vol 1x Binding Buffer and then with 6 vol 1x Wash Buffer (10 mM imidazole). Protein was then eluted with 6 vol 1x Elution Buffer (1 M imidazole). The eluate was captured in fractions of 0.5 ml. Fractions were assayed with Coomasie blue and desired fractions were combined and dialyzed using spectra/por 6 Dialysis Membranes of 10,000 MWCO (Spectrum Laboratories) in PBS (pH 7.4, 5 mM EDTA and 0.5 mM DTT) for overnight.
The resulting protein was characterized by SDS-PAGE (4-20% gradient gel) for purity analysis and concentrations were measured by UV analysis.
Fresh protein was used immediately for protein binding experiments. […]
Direct Binding Fluorescence Polarization Experiments. Fluorescence polarization experiments were undertaken to assess the ability of spiroligomers to bind HDM2, a protein with hydrophobic cleft that binds the p53 N-terminal helical domain. Fluoresceinated oligomers (conc. of 10 nM) were incubated for 30 minutes at room temperature with sequential dilutions of […]

T1 sequence (Q00987 25-117): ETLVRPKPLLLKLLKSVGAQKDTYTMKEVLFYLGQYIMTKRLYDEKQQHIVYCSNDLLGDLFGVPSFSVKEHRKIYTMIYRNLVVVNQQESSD

CC(C)CN1C(=O)[C@@H]2C[C@@]3(CN2C(=O)[C@@]12C[C@H]1C(=O)N(Cc4ccc(Cl)c(Cl)c4)[C@]4(C[C@@H]5C(=O)N[C@@H](CCc6ccccc6)C(=O)N5C4)C(=O)N1C2)NC(=O)[C@@H](CCCCNC(=S)Nc1ccc2c(c1)C(=O)OC21c2ccc(O)cc2Oc2cc(O)ccc21)NC3=O [Compound 1]
increase in affinity for HDM2 (1 versus 9, differing only in the stereocenter of the lysine residue): ~17 fold
fluorescence polarization ([hDM2] 0.08106232 nM): 68. 58 millipolarization and 68. 27 millipolarization and 70. 47 millipolarization
fluorescence polarization ([hDM2] 0.1621246 nM): 65. 92 millipolarization and 65. 99 millipolarization and 65. 14 millipolarization
fluorescence polarization ([hDM2] 0.3242493 nM): 75. 62 millipolarization and 76. 93 millipolarization and 62. 45 millipolarization
fluorescence polarization ([hDM2] 0.6484985 nM): 76. 88 millipolarization and 65. 12 millipolarization and 66. 54 millipolarization
fluorescence polarization ([hDM2] 1.296997 nM): 74. 46 millipolarization and 61. 79 millipolarization and 70. 28 millipolarization
fluorescence polarization ([hDM2] 2.593994 nM): 69. 71 millipolarization and 64. 6 millipolarization and 67. 34 millipolarization
fluorescence polarization ([hDM2] 5.187988 nM): 68. 52 millipolarization and 66. 82 millipolarization and 65. 52 millipolarization
fluorescence polarization ([hDM2] 10.37598 nM): 78. 3 millipolarization and 73. 95 millipolarization and 76. 62 millipolarization
fluorescence polarization ([hDM2] 20.75195 nM): 75. 45 millipolarization and 72. 99 millipolarization and 76. 91 millipolarization
fluorescence polarization ([hDM2] 41.50391 nM): 82. 2 millipolarization and 90. 13 millipolarization and 83. 56 millipolarization
fluorescence polarization ([hDM2] 83.00781 nM): 90. 07 millipolarization and 92. 68 millipolarization and 90. 31 millipolarization
fluorescence polarization ([hDM2] 166.0156 nM): 123. 93 millipolarization and 122. 78 millipolarization and 128. 68 millipolarization
fluorescence polarization ([hDM2] 332.0313 nM): 176. 96 millipolarization and 168. 11 millipolarization and 165. 21 millipolarization
fluorescence polarization ([hDM2] 664.0625 nM): 219. 16 millipolarization and 207. 64 millipolarization and 219. 81 millipolarization
fluorescence polarization ([hDM2] 1328.125 nM): 249. 64 millipolarization and 254. 41 millipolarization and 260. 31 millipolarization
fluorescence polarization ([hDM2] 2656.25 nM): 276. 63 millipolarization and 280. 28 millipolarization and 279. 87 millipolarization
fluorescence polarization ([hDM2] 5312.5 nM): 283. 09 millipolarization and 283. 22 millipolarization and 294. 56 millipolarization
fluorescence polarization ([hDM2] 10625 nM): 279. 23 millipolarization and 291. 88 millipolarization and 291. 17 millipolarization
fluorescence polarization ([hDM2] 21250 nM): 289. 83 millipolarization and 291. 58 millipolarization and 284. 9 millipolarization
fluorescence polarization ([hDM2] 42500 nM): 280. 74 millipolarization and 287. 71 millipolarization and 288. 59 millipolarization
difference in binding to HDM2 (epimers 12 and 1): four-fold
Kd (fluorescein labeled ligand at 10 nM, varying HDM2, read-out: Kd (HDM2)): 400 nM
